Source: paper PMC3214022, “Plasmodium falciparum Parasites Are Killed by a Transition State Analogue of Purine Nucleoside Phosphorylase in a Primate Animal Model” (PLoS ONE, 2011)
Several values for one entry are separate records, joined by “and”; a condition that tells them apart may be missing. Identical values can stand only once.

Experiments:
[1] = test system: P. falciparum (FVO strain); assay: Efficacy study: parasitaemia in infected Aotus monkeys (thick blood smears); type: in vivo, Aotus lemurinus lemurinus; settings: for Parasitaemia: oral 50 mg kg^−1 twice a day for 7 days, monkeys ITM 1-3 = c3-c5
Description: (§1) Laboratory bred Aotus lemurinus lemurinus monkeys (0.75–0.89 kg) were maintained as described. […] Blood samples were collected before the treatment started (t = 0), 0.05 h, 0.5 h, 1 h, 2 h, 6 h, 24 h, 48 h, and 6, 12 and 18 days after the first dose from each monkey and processed as described below. Pharmacokinetic parameters were calculated using PKSolver. For efficacy studies, Aotus monkeys were inoculated intravenously with 5×10^6 parasites of the FVO strain of P. falciparum in an approved treatment protocol. […] Parasitaemia was determined by Giemsa-stained thick blood smears prepared daily from the marginal ear vein [41]. Blood samples were collected from each monkey and transferred to tubes containing lithium heparin, centrifuged and both plasma and blood cells were frozen at −80 °C until analysis. Animals received a physical examination and blood chemistry profiles were monitored after treatment as described previously. Any monkey not responding appropriately to treatment was cured of its infection with mefloquine (40 mg kg^−1). […] The day of clearance is defined as the first of three consecutive days in which the thick blood films are parasite negative. The day of recrudescence is the first of three consecutive days of positive thick blood films after a period of clearance. Suppression is defined as a transient decrease in the parasite count post-treatment without clearance.

human erythrocytes = assay: Polyamine and purine levels in cultured cells after BCX4945 treatment (HPLC, UPLC/MS/MS); type: cell-based; settings: uninfected erythrocytes, 5 µM BCX4945, 24 h
Description: (§2) Polyamines from 0.5 M PCA extracts were analyzed as the dansyl-derivatives by HPLC/fluorescence on a Waters Millennium system. Protein concentration was determined with a bicinchoninic acid (BCA) protein assay kit according to the manufacturer's instructions (Pierce) using BSA as a standard. Data from biological samples were normalized to the protein content.
(§3) Samples from blood cells, plasma and media were extracted and analyzed in duplicate. […] Samples were incubated for 20 min at 4 °C and neutralized with 5 M KOH at 10∶1 (v/v, HClO4/KOH) for 20 min at 4 °C. Plates were centrifuged (10 min at 4,000 rpm, 4°C) and supernatants were filtered through a MultiScreen® Filter Plate with Ultracel®-10 Membrane (Millipore). Metabolite and inhibitor levels were quantified by UPLC/MS/MS using a Xevo TQ mass spectrometer (Waters). […] Quantitative determination was performed in ESI positive-ion mode using multiple-reaction monitoring (MRM) mode. The ESI capillary voltage was 0.3 kV, source temperature was set at 150 °C and desolvation temperature at 450 °C. Data acquisition and analysis were carried out by MassLynx V4.1 and QuanLynx software (Waters). The concentration of the metabolites was calculated by interpolation of the observed analyte/internal standard peak-area ratio with the corresponding calibration curve.

in vivo = assay: in vivo; set-up: species or system Aotus lemurinus lemurinus
Description: as §3, §1

P. falciparum strain Dd2 = assay: 72 h in vitro growth inhibition test, PicoGreen DNA quantitation; type: cell-based; settings: Plasmodium falciparum, DD2, 72 h
Description: (§4) Briefly, synchronous culture in the schizont stage was cultured for 24 h in media containing 10 µM of hypoxanthine. Ring stage parasite cultures (200 µl per well, with 1% hematocrit and 1% parasitaemia) were then grown for 72 h in the presence of increasing concentrations of the drug. After 72 h in culture, parasite viability was determined by DNA quantitation using PicoGreen (Invitrogen) as described by Quashie and colleagues. The half-maximum inhibitory concentration (IC50) calculation was performed with Origin software (OriginLab) using a nonlinear regression curve fitting. Half-maximum inhibitory concentration (IC50) is the concentration of inhibitor needed to kill 50% of parasites.

P. falciparum strain FVO = assay: as above; type: cell-based; settings: Plasmodium falciparum, chloroquine/quinine resistant strain FVO, 1% hematocrit, 10 µM hypoxanthine
Description: as §4

P. falciparum strain 3D7 = assay: as above; type: cell-based; settings: Plasmodium falciparum, 3D7, 72 h
Description: as §4

[2] = test system: P. falciparum infected-erythrocytes; assay: Polyamine and purine levels in cultured cells after BCX4945 treatment (HPLC, UPLC/MS/MS); type: cell-based, Plasmodium falciparum; settings: 5 µM BCX4945, 24 h
Description: as §2, §3

[3] = test system: purine salvage (hypoxanthine, inosine, adenosine, 2′-deoxyguanosine); assay: Purine metabolites in plasma and blood cells of treated Aotus monkeys (UPLC-MS/MS); type: in vivo, Aotus lemurinus lemurinus
Description: as §3, §1

[4] = test system: P. falciparum-infected erythrocytes; assay: Metabolic labeling with [3H]inosine or [3H]hypoxanthine and HPLC analysis; type: cell-based, Plasmodium falciparum; settings: 10 µM BCX4945, 1 h labeling
From the text: Samples were extracted with perchloric acid (PCA), neutralized and analyzed by HPLC as described.

P. falciparum cultures = assay: Inosine and hypoxanthine rescue assay; type: cell-based, Plasmodium falciparum; settings: 15 µM BCX4945, hypoxanthine or inosine up to 200 µM, 72 h
Description: Synchronized, schizont stage parasites were washed in purine-free medium to remove excess hypoxanthine and inoculated into freshly drawn erythrocytes that had been washed and resuspended in purine-free medium. The schizont stage parasites were cultured in purine-free medium for 24 h to further reduce hypoxanthine inside the cell. […] Parasite viability was determined by DNA quantitation as described by Quashie and colleagues. For each condition, two independent experiments were carried out in triplicate.

[5] = oral 50 mg kg^−1 twice a day for seven days
[6] = infected Aotus under BCX4945 treatment

Nc1nc2c(CN3CC(O)C(CO)C3)c[nH]c2c(=O)[nH]1 (stereo not shown) [BCX4945, 4′-deaza-1′-aza-2′-deoxy-1′-(9-methylene)-Immucillin-G]
Parasitaemia ([1]; day 1 post-treatment): 0 Parasites per µl×10^3 | Parasitaemia ([1]; day of treatment 6): 0 Parasites per µl×10^3 | Parasitaemia ([1]; day −1 (before treatment)): 0.7 Parasites per µl×10^3 and 0.5 Parasites per µl×10^3 | clearance of P. falciparum infection [1, 5]: cleared P. falciparum infections between the fourth and the seventh day of treatment | parasitaemia cleared, of the original infection [1, 5]: > 99.99% | time monkeys remained parasite-negative post-treatment [1, 5]: up to nine days | response to treatment (category) ([1]; oral BCX4945, Aotus model): clearance and recrudescence | Adenosine, cell pellet (human erythrocytes): 2.60±0.03 (0.2) nmoles/mg protein | Adenosine, supernatant (human erythrocytes): 0.6±0.2 (0.2) µM | BCX4945 level, cell pellet (human erythrocytes): 36±12 (0.07) nmoles/mg protein | BCX4945 level, supernatant (human erythrocytes): 4.0±0.2 (0.01) µM | Hypoxanthine, cell pellet (human erythrocytes): 0 nmoles/mg protein | Hypoxanthine, supernatant (human erythrocytes): 0 (0.04) µM | Inosine, cell pellet (human erythrocytes): 37±6 (0.04) nmoles/mg protein | Inosine, supernatant (human erythrocytes): 8±3 (0.08) µM | MTA, cell pellet (human erythrocytes): 0 nmoles/mg protein | MTA, supernatant (human erythrocytes): 0 µM | MTI, cell pellet (human erythrocytes): 0 nmoles/mg protein | MTI, supernatant (human erythrocytes): 0 µM | Putrescine, cell pellet (human erythrocytes): 0 nmoles/mg protein | Spermidine, cell pellet (human erythrocytes): 0.060±0.003 nmoles/mg protein | Spermine, cell pellet (human erythrocytes): 0.030±0.002 nmoles/mg protein | bioavailability (in vivo; Aotus lemurinus lemurinus): 28% | concentration at 24 h (in vivo; Aotus lemurinus lemurinus, po): ~1200 nM | plasma concentration within 1 h of the first dose (in vivo; Aotus lemurinus lemurinus, po): approximately 6 µM | half-life (in vivo; monkey): 1.2 to 1.3 h | half-life (in vivo; monkey, iv, 10 mg/kg): 1.3 h | Cmax (in vivo; monkey, po, 50 mg/kg): ≤ 15000 nM | half-life (in vivo; monkey, po, 50 mg/kg): 1.2 h | IC50 (P. falciparum strain Dd2): 130 ± 22 nM | IC50 (P. falciparum strain FVO): 202 ± 27 nM | IC50 (P. falciparum strain 3D7): 164 ± 20 nM | Adenosine, cell pellet [2]: 10±4 nmoles/mg protein | Adenosine, supernatant [2]: 0.4±0.2 (0.08) µM | BCX4945 level, cell pellet [2]: 20±6 (0.004) nmoles/mg protein | BCX4945 level, supernatant [2]: 5±0.6 (0.0002) µM | Hypoxanthine, cell pellet [2]: 0 (0.007) nmoles/mg protein | Hypoxanthine, supernatant [2]: 0 (0.004) µM | Inosine, cell pellet [2]: 19±5 nmoles/mg protein | Inosine, supernatant [2]: 60 µM and 61±5 (0.0001) µM | MTA, cell pellet [2]: 0.6±0.1 nmoles/mg protein | MTA, supernatant [2]: 0 µM | MTI, cell pellet [2]: 0.6±0.1 nmoles/mg protein | MTI, supernatant [2]: 0.3±0.1 (0.03) µM | Putrescine, cell pellet [2]: 0.2±0.1 (0.01) nmoles/mg protein | Spermidine, cell pellet [2]: 1.1±0.3 (0.02) nmoles/mg protein | Spermine, cell pellet [2]: 0.07±0.03 (0.01) nmoles/mg protein | hypoxanthine in plasma throughout the treatment period ([3]; 50 mg kg^−1 per dose twice a day): 0.3 ± 0.2 µM | 2′-deoxyguanosine levels in plasma and blood cells ([3]; BCX4945 treatment): increased | hypoxanthine concentration in plasma and blood cells [3, 6]: below 0.3 µM | inosine concentration in plasma and blood cells [3, 6]: above 50 µM | hypoxanthine reappearing in the blood ([3]; infected animals, three days after the end of three-day oral treatment): ~30 µM | [3H]hypoxanthine incorporation into purine derivatives [4]: continues at reduced levels | [3H]inosine incorporation into the purine pool ([4]; schizont and trophozoite stages): complete inhibition | rescue of growth by purine supplementation (P. falciparum cultures): Hypoxanthine, but not inosine, can bypass PNP inhibition
